The supplement of paper PMC10307832

Key:
Experiment in all cases: relative viability (nuclei count vs DMSO), 5 days (fraction); higher = more cells survive
BEN = tested on: BEN
In short: (§1)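 Cells from lung cancer lines were seeded into 1536-well plates and, one day later, dosed by pin tool. Treatments were either a single drug or a fixed dose of an anchor drug with five library-drug doses (not always all listed) in √10 steps. After 5 days, nuclei were stained in a one-step fixation (final 0.05% Triton X-100, 1% formaldehyde, 1 ug/ml Hoechst) and counted on 4× images, and relative viability is the treated-to-vehicle nuclei ratio, as the median of duplicate plates.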

CAL-12T = tested on: CAL-12T
In short: as §1

COR-L23 = tested on: COR-L23
In short: as §1

LU99A = tested on: LU99A
In short: as §1

LXF-289 = tested on: LXF-289
In short: as §1

NCI-H1355 = tested on: NCI-H1355
In short: as §1

NCI-H1437 = tested on: NCI-H1437
In short: as §1

NCI-H1563 = tested on: NCI-H1563
In short: as §1

NCI-H1650 = tested on: NCI-H1650
In short: as §1

NCI-H1651 = tested on: NCI-H1651
In short: as §1

NCI-H1666 = tested on: NCI-H1666
In short: as §1

NCI-H1755 = tested on: NCI-H1755
In short: as §1

NCI-H1792 = tested on: NCI-H1792
In short: as §1

NCI-H1993 = tested on: NCI-H1993
In short: as §1

NCI-H2085 = tested on: NCI-H2085
In short: as §1

NCI-H2087 = tested on: NCI-H2087
In short: as §1

NCI-H2170 = tested on: NCI-H2170
In short: as §1

NCI-H460 = tested on: NCI-H460
In short: as §1

NCI-H520 = tested on: NCI-H520
In short: as §1

PC-14 = tested on: PC-14
In short: as §1

SK-MES-1 = tested on: SK-MES-1
In short: as §1

## CN1CCN(CCOc2cc(OC3CCOCC3)c3c(Nc4c(Cl)ccc5c4OCO5)ncnc3c2)CC1 [Saracatinib] + Cc1nc(Nc2ncc(C(=O)Nc3c(C)cccc3Cl)s2)cc(N2CCN(CCO)CC2)n1 [Dasatinib] (partner 0.075 µM)
BEN; first compound 0.02 µM
  relative viability: 0.329
BEN; first compound 0.6325 µM
  relative viability: 0.373
BEN; first compound 2 µM
  relative viability: 0.418
CAL-12T; first compound 0.02 µM
  relative viability: 0.593
CAL-12T; first compound 0.2 µM
  relative viability: 0.451
CAL-12T; first compound 0.6325 µM
  relative viability: 0.47
CAL-12T; first compound 2 µM
  relative viability: 0.294
COR-L23; first compound 0.02 µM
  relative viability: 0.553
COR-L23; first compound 0.2 µM
  relative viability: 0.533
COR-L23; first compound 0.6325 µM
  relative viability: 0.542
COR-L23; first compound 2 µM
  relative viability: 0.478
LU99A; first compound 0.02 µM
  relative viability: 0.567
LU99A; first compound 0.2 µM
  relative viability: 0.578
LU99A; first compound 0.6325 µM
  relative viability: 0.652
LU99A; first compound 2 µM
  relative viability: 0.558
LXF-289; first compound 0.02 µM
  relative viability: 0.224
LXF-289; first compound 0.2 µM
  relative viability: 0.218
LXF-289; first compound 0.6325 µM
  relative viability: 0.185
LXF-289; first compound 2 µM
  relative viability: 0.212
NCI-H1355; first compound 0.02 µM
  relative viability: 0.716
NCI-H1355; first compound 0.2 µM
  relative viability: 0.703
NCI-H1355; first compound 0.6325 µM
  relative viability: 0.774
NCI-H1355; first compound 2 µM
  relative viability: 0.731
NCI-H1437; first compound 0.02 µM
  relative viability: 0.494
NCI-H1437; first compound 0.2 µM
  relative viability: 0.283
NCI-H1437; first compound 0.6325 µM
  relative viability: 0.389
NCI-H1437; first compound 2 µM
  relative viability: 0.289
NCI-H1563; first compound 0.02 µM
  relative viability: 0.463
NCI-H1563; first compound 0.2 µM
  relative viability: 0.39
NCI-H1563; first compound 0.6325 µM
  relative viability: 0.437
NCI-H1563; first compound 2 µM
  relative viability: 0.397
NCI-H1650; first compound 0.02 µM
  relative viability: 0.378
NCI-H1650; first compound 0.2 µM
  relative viability: 0.299
NCI-H1650; first compound 0.6325 µM
  relative viability: 0.359
NCI-H1650; first compound 2 µM
  relative viability: 0.371
NCI-H1651; first compound 0.02 µM
  relative viability: 0.565
NCI-H1651; first compound 0.2 µM
  relative viability: 0.37
NCI-H1651; first compound 0.6325 µM
  relative viability: 0.439
NCI-H1651; first compound 2 µM
  relative viability: 0.406
NCI-H1666; first compound 0.02 µM
  relative viability: 0.772
NCI-H1666; first compound 0.2 µM
  relative viability: 0.87
NCI-H1666; first compound 0.6325 µM
  relative viability: 0.967
NCI-H1666; first compound 2 µM
  relative viability: 0.875
NCI-H1755; first compound 0.02 µM
  relative viability: 0.422
NCI-H1755; first compound 0.2 µM
  relative viability: 0.318
NCI-H1755; first compound 0.6325 µM
  relative viability: 0.439
NCI-H1755; first compound 2 µM
  relative viability: 0.404
NCI-H1792; first compound 0.02 µM
  relative viability: 0.824
NCI-H1792; first compound 0.2 µM
  relative viability: 0.566
NCI-H1792; first compound 0.6325 µM
  relative viability: 0.894
NCI-H1792; first compound 2 µM
  relative viability: 0.711
NCI-H1993; first compound 0.02 µM
  relative viability: 0.589
NCI-H1993; first compound 0.2 µM
  relative viability: 0.528
NCI-H1993; first compound 0.6325 µM
  relative viability: 0.527
NCI-H1993; first compound 2 µM
  relative viability: 0.501
NCI-H2085; first compound 0.02 µM
  relative viability: 0.286
NCI-H2085; first compound 0.2 µM
  relative viability: 0.321
NCI-H2085; first compound 0.6325 µM
  relative viability: 0.345
NCI-H2085; first compound 2 µM
  relative viability: 0.3
NCI-H2087; first compound 0.02 µM
  relative viability: 0.807
NCI-H2087; first compound 0.2 µM
  relative viability: 0.69
NCI-H2087; first compound 0.6325 µM
  relative viability: 0.928
NCI-H2087; first compound 2 µM
  relative viability: 0.656
NCI-H2170; first compound 0.02 µM
  relative viability: 0.766
NCI-H2170; first compound 0.2 µM
  relative viability: 0.486
NCI-H2170; first compound 0.6325 µM
  relative viability: 0.548
NCI-H2170; first compound 2 µM
  relative viability: 0.265
NCI-H460; first compound 0.02 µM
  relative viability: 0.587
NCI-H460; first compound 0.2 µM
  relative viability: 0.418
NCI-H460; first compound 0.6325 µM
  relative viability: 0.603
NCI-H460; first compound 2 µM
  relative viability: 0.46
NCI-H520; first compound 0.02 µM
  relative viability: 0.21
NCI-H520; first compound 0.6325 µM
  relative viability: 0.194
NCI-H520; first compound 2 µM
  relative viability: 0.244
PC-14; first compound 0.02 µM
  relative viability: 0.211
PC-14; first compound 0.2 µM
  relative viability: 0.127
PC-14; first compound 0.6325 µM
  relative viability: 0.0455
PC-14; first compound 2 µM
  relative viability: 0.0398
SK-MES-1; first compound 0.02 µM
  relative viability: 0.4
SK-MES-1; first compound 0.2 µM
  relative viability: 0.289
SK-MES-1; first compound 0.6325 µM
  relative viability: 0.233
SK-MES-1; first compound 2 µM
  relative viability: 0.186
